Experimental data: PMC7571065, “Design, Synthesis, In Vitro and In Silico Studies of New Thiazolylhydrazine-Piperazine Derivatives as Selective MAO-A Inhibitors” (Molecules, 2020)
Entries after “also recorded” stand apart in the source; their conditions may differ. Where two headings read alike, the source gives them in different places.

Assays:
MAO-A [1] = molecular target: T1, MAO-A (Homo sapiens, UniProt P21397); test: In vitro fluorometric MAO-A inhibition assay (Ampliflu Red, tyramine); format: biochemical; details: for inhibition at 0.001 µM / inhibition at 0.01 µM / inhibition at 0.1 µM / inhibition at 1 µM / inhibition at 10 µM: read-out: MAO-A % Inhibition; for IC50: mean ± SD, read-out: IC50 against MAO-A
T1 construct: purchased Sigma-Aldrich (Steinheim, Germany)
T1 sequence (P21397 1-527): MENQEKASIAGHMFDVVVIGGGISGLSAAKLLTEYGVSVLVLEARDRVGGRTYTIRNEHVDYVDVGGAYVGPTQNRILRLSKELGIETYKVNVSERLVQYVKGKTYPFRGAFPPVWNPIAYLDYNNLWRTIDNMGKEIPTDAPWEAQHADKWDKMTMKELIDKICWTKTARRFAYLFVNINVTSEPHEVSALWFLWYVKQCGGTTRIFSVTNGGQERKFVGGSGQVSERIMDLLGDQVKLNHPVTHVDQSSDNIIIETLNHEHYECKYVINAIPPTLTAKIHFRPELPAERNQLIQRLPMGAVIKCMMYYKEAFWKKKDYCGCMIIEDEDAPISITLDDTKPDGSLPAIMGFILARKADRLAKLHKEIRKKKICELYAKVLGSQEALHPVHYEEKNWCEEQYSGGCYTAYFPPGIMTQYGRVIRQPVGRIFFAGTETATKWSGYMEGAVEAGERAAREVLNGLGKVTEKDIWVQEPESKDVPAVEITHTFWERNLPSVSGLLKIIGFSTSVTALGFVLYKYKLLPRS

recombinant MAO-B = molecular target: T2, recombinant MAO-B (Homo sapiens, UniProt P27338); test: In vitro fluorometric MAO-B inhibition assay (Ampliflu Red, tyramine); format: biochemical
T2 construct: purchased Sigma-Aldrich (Steinheim, Germany)
T2 sequence (P27338 1-520): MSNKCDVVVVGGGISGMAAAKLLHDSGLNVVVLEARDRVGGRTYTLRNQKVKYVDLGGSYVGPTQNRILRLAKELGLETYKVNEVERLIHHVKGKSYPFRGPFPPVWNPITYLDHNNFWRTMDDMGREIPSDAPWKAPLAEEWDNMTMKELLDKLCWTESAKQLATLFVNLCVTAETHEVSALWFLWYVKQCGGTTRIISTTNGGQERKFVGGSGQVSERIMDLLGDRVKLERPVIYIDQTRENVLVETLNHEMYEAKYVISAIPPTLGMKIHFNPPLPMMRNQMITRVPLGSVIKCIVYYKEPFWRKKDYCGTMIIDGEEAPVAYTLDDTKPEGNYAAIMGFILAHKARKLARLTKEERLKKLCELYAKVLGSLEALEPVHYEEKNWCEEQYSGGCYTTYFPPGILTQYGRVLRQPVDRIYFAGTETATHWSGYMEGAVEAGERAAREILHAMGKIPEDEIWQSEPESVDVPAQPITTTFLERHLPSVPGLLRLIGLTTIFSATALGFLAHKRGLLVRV

MAO-A [2] = molecular target: T1, MAO-A; test: Enzyme kinetic studies (Lineweaver-Burk and secondary plot); format: biochemical
Experimental: The same materials were used in the MAO inhibition assay. […] All processes were evaluated in quadruplicate. The results were analyzed by means of Microsoft Office Excel 2013 as Lineweaver-Burk diagrams. […] of the Lineweaver-Burk plots were replotted versus the inhibitor concentration, and the Ki values were determined from the x-axis intercept as Ki.
The MAO-A inhibition mechanism was defined by conducting enzyme kinetics experiments utilizing a protocol close to that of the MAO inhibition assay. […] To estimate the type of inhibition of this compound, linear Lineweaver-Burk graphs were used. The velocity curves of the substrates were reported in the absence and presence of compound 3e. In each case, the initial velocity measurements were collected at various concentrations of substrates (tyramine) varying from 20 μM to 0.625 μM.
According to the Lineweaver-Burk plots, the type of inhibition consists of two general classes: reversible and irreversible. Mixed-type, uncompetitive, competitive and noncompetitive inhibition types are included in the reversible inhibition. […] Competitive inhibition is seen if the lines intersect on the y-axis, and the slopes and x-intercepts are different. On the contrary, non-competitive inhibition has the opposite result: the plotted lines have the same x-intercept but there are diverse slopes and y-intercepts.

Cytotoxicity MTT assay = format: cell-based; details: mouse, NIH/3T3 mouse embryonic fibroblast cells, tested 1 mM to 0.000316 mM, read-out: IC50 NIH/3T3 Cell Line
Experimental: The NIH/3T3 mouse embryonic fibroblast cell line (ATCC® CRL-1658 ™, London, UK) was used for cytotoxicity assays. The incubation period of NIH/3T3 cells was based on the supplier’s recommendation. NIH/3T3 cells were seeded at 1 × 10^4 cells into each well of 96-well plates. MTT assay was carried out in accordance with the standards previously described manner.

SMILES	melting point [°C]	inhibition at 1000 µM (MAO-A [1]; 10^−3 M) [%]	inhibition at 100 µM (MAO-A [1]; 10^−4 M) [%]	inhibition at 1000 µM (recombinant MAO-B; 10^−3 M) [%]	inhibition at 100 µM (recombinant MAO-B; 10^−4 M) [%]	other results
C#CCN(C)CCCOc1ccc(Cl)cc1Cl [Clorgiline, clorgiline, reference compound]						inhibition at 0.001 µM (MAO-A [1]): 22.5 ± 0.736%; inhibition at 0.01 µM (MAO-A [1]): 34.2 ± 0.841%; inhibition at 0.1 µM (MAO-A [1]): 65.2 ± 0.997%; inhibition at 1 µM (MAO-A [1]): 78.5 ± 1.02%; inhibition at 10 µM (MAO-A [1]): 87.6 ± 1.46%
CN1CCN(c2ccc(C=NNc3nc(-c4ccccc4)cs3)cc2)CC1 [Compound 3a, 2-{2-[4-(4-Methylpiperazin-1-yl)benzylidene]hydrazinyl}-4-phenylthiazole]	254 to 255	68.1 ± 1.03	34.3 ± 0.851	32.3 ± 0.985	25 ± 0.721	
Cc1ccc(-c2csc(NN=Cc3ccc(N4CCN(C)CC4)cc3)n2)cc1 [Compound 3b, 2-{2-[4-(4-Methylpiperazin-1-yl)benzylidene]hydrazinyl}-4-(4-methylphenyl)thiazole]	252 to 254	71 ± 1.11	31.5 ± 0.732	34.6 ± 0.886	27.6 ± 0.649	
COc1ccc(-c2csc(NN=Cc3ccc(N4CCN(C)CC4)cc3)n2)cc1 [Compound 3c, 2-{2-[4-(4-Methylpiperazin-1-yl)benzylidene]hydrazinyl}-4-(4-methoxyphenyl)thiazole]	226 to 228	92.1 ± 2.22	87.7 ± 1.87	30.3 ± 0.812	21.5 ± 0.879	inhibition at 10 µM (MAO-A [1]; 10^−5 M): 75.4 ± 1.43%; inhibition at 1 µM (MAO-A [1]; 10^−6 M): 71 ± 1.09%; inhibition at 0.1 µM (MAO-A [1]; 10^−7 M): 48.3 ± 0.869%; inhibition at 0.01 µM (MAO-A [1]; 10^−8 M): 30.9 ± 0.711%; inhibition at 0.001 µM (MAO-A [1]; 10^−9 M): 21.8 ± 0.638%; IC50 (MAO-A [1]): 0.188 ± 0.008 µM
CN1CCN(c2ccc(C=NNc3nc(-c4ccc(C#N)cc4)cs3)cc2)CC1 [Compound 3d, 2-{2-[4-(4-Methylpiperazin-1-yl)benzylidene]hydrazinyl}-4-(4-cyanophenyl)thiazole]	234 to 235	90.2 ± 2.04	84.4 ± 1.81	36.6 ± 0.903	26 ± 0.836	inhibition at 10 µM (MAO-A [1]; 10^−5 M): 81.1 ± 1.94%; inhibition at 1 µM (MAO-A [1]; 10^−6 M): 79 ± 1.25%; inhibition at 0.1 µM (MAO-A [1]; 10^−7 M): 49.6 ± 0.811%; inhibition at 0.01 µM (MAO-A [1]; 10^−8 M): 30.6 ± 0.699%; inhibition at 0.001 µM (MAO-A [1]; 10^−9 M): 18.1 ± 0.593%; IC50 (MAO-A [1]): 0.117 ± 0.004 µM
CN1CCN(c2ccc(C=NNc3nc(-c4ccc([N+](=O)[O-])cc4)cs3)cc2)CC1 [Compound 3e, 2-{2-[4-(4-Methylpiperazin-1-yl)benzylidene]hydrazinyl}-4-(4-nitrophenyl)thiazole]		95.3 ± 1.9	90.8 ± 1.73	39.1 ± 0.81	28.2 ± 0.791	inhibition type (MAO-A [2]; Lineweaver-Burk plots): competitive and reversible; also recorded: reversible and competitive; Ki (MAO-A [2]; secondary plot, substrate tyramine, read-out: Ki (steady-state inhibition constant)): 0.011 µM; inhibition at 10 µM (MAO-A [1]; 10^−5 M): 85 ± 1.03%; inhibition at 1 µM (MAO-A [1]; 10^−6 M): 82.4 ± 1.39%; inhibition at 0.1 µM (MAO-A [1]; 10^−7 M): 63.9 ± 0.893%; inhibition at 0.01 µM (MAO-A [1]; 10^−8 M): 42.6 ± 0.835%; inhibition at 0.001 µM (MAO-A [1]; 10^−9 M): 23 ± 0.715%; IC50 (MAO-A [1]): 0.057 ± 0.002 µM; IC50 (Cytotoxicity MTT assay): > 1000 µM
CN1CCN(c2ccc(C=NNc3nc(-c4ccc(F)cc4)cs3)cc2)CC1 [Compound 3f, 2-{2-[4-(4-Methylpiperazin-1-yl)benzylidene]hydrazinyl}-4-(4-fluorophenyl)thiazole]	247 to 249	75.9 ± 1.24	40.7 ± 0.98	30.7 ± 0.912	24.7 ± 0.854	
CN1CCN(c2ccc(C=NNc3nc(-c4ccc(Cl)cc4)cs3)cc2)CC1 [Compound 3g, 2-{2-[4-(4-Methylpiperazin-1-yl)benzylidene]hydrazinyl}-4-(4-chlorophenyl)thiazole]	249 to 250	73.7 ± 1.11	33.5 ± 0.833	31.2 ± 0.789	24 ± 0.623	
CN1CCN(c2ccc(C=NNc3nc(-c4ccc(Br)cc4)cs3)cc2)CC1 [Compound 3h, 2-{2-[4-(4-Methylpiperazin-1-yl)benzylidene]hydrazinyl}-4-(4-bromophenyl)thiazole]	253 to 255	70.8 ± 1.32	37.9 ± 0.796	34.4 ± 0.824	22.1 ± 0.796	
CN1CCN(c2ccc(C=NNc3nc(-c4ccc(-c5ccccc5)cc4)cs3)cc2)CC1 [Compound 3i, 2-{2-[4-(4-Methylpiperazin-1-yl)benzylidene]hydrazinyl}-4-([1,1’-biphenyl]-4-yl)thiazole]	275 to 276	66.2 ± 0.972	41.5 ± 0.87	30.6 ± 0.836	21.5 ± 0.809	
Cc1ccc(-c2csc(NN=Cc3ccc(N4CCN(C)CC4)cc3)n2)c(C)c1 [Compound 3j, 2-{2-[4-(4-Methylpiperazin-1-yl)benzylidene]hydrazinyl}-4-(2,4-dimethylphenyl)thiazole]	238 to 240	72.3 ± 1.03	38.1 ± 0.798	28.1 ± 0.901	20 ± 0.792	
CN1CCN(c2ccc(C=NNc3nc(-c4ccc(F)cc4F)cs3)cc2)CC1 [Compound 3k, 2-{2-[4-(4-Methylpiperazin-1-yl)benzylidene]hydrazinyl}-4-(2,4-difluorophenyl)thiazole]	250 to 251	80 ± 1.3	35.1 ± 0.833	29.6 ± 0.782	23.2 ± 0.876	
CN1CCN(c2ccc(C=NNc3nc(-c4ccc(Cl)cc4Cl)cs3)cc2)CC1 [Compound 3l, 2-{2-[4-(4-Methylpiperazin-1-yl)benzylidene]hydrazinyl}-4-(2,4-chlorophenyl)thiazole]						MAO-A % Inhibition (MAO-A [1]; 10^−3 M): 73.521 ± 1.180%; MAO-A % Inhibition (MAO-A [1]; 10^−4 M): 40.578 ± 0.914%; MAO-B % Inhibition (recombinant MAO-B; 10^−3 M): 33.667 ± 0.991%; MAO-B % Inhibition (recombinant MAO-B; 10^−4 M): 21.373 ± 0.769%
